In the assay the target is T1, CHK1 (Homo sapiens, UniProt O14757).
T1 construct: His; purchased Invitrogen
T1 sequence (O14757 1-476): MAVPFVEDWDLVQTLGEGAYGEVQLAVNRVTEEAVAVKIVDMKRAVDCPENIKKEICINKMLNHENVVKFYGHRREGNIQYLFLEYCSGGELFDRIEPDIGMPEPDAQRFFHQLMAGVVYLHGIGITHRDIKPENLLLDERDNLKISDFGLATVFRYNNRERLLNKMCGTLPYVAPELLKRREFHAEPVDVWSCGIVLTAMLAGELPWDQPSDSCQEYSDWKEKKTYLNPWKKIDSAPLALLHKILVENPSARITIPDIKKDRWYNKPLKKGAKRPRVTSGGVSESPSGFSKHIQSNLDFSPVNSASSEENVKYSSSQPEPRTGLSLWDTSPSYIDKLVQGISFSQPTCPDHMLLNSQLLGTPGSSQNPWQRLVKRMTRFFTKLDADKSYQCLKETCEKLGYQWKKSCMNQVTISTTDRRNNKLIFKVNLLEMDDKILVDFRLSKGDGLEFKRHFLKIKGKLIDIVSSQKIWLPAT
Put plainly: CHK1 Enzyme Assay (phosphorylation of Chktide peptide, 33P-ATP filter assay). Format: biochemical. As to conditions: 12.5 nM His-CHK1, 0.01 mM ATP, 40 minutes at 30° C.; read-out: CHK1 Enzyme Activity (IC50 range). The gist of the method: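 His-CHK1 (12.5 nM) phosphorylating 14.8 μM Chktide with 0.01 mM ATP plus 33P-γ-ATP, in 50 mM Hepes-NaOH pH 7.5 with 0.1 mg/mL BSA. Incubated with inhibitor for 40 min at 30 °C. Stopped with phosphoric acid; phosphopeptide captured on filter and counted by scintillation.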

IC50 data for 20 molecules are collected here from patent publication US9604975B2, “Indolyl-pyridone derivatives having checkpoint kinase 1 inhibitory activity” (Vernalis (R&D) Ltd., priority 2009, dated 2017).

One may read the IC50 as the concentration at which inhibition is half-maximal. With `O=C(Nc1cnn(Cc2ccc(F)c(F)c2)c1)c1c[nH]c(=O)c(-c2cc3cc(CNCCO)ccc3[nH]2)c1` [Example 103, 5-{5-[(2-Hydroxyethylamino)-methyl]-1H-indol-2yl}-6-oxo-1,6-dihydropyridine-3-carboxylic acid[1-(3,4-difluorobenzyl)-1H-pyrazol-4-yl]-amide], the IC50 is < 0.1 µM.
As for `CN1CCN(Cc2ccc3[nH]c(-c4cc(C(=O)Nc5cnn(Cc6ccc(F)c(F)c6)c5)c[nH]c4=O)cc3c2)CC1` [Example 104, 5-[5-(4-Methyl-piperazin-1-ylmethyl)-1H-indol-2-yl]-6-oxo-1,6-dihydro-pyridine-3-carboxylic acid [1-(3,4-difluoro-benzyl)-1H-pyrazol-4-yl]-amide], the figure is < 0.1 µM; as for `O=C(Nc1cnn(Cc2ccc(F)c(F)c2)c1)c1c[nH]c(=O)c(-c2cc3cc(CN4CCN(CCO)CC4)ccc3[nH]2)c1` [Example 105, 5-{5-[4-(2-Hydroxyethyl)-piperazin-1-ylmethyl]-1H-indol-2yl}-6-oxo-1,6-dihydropyridine-3-carboxylic acid[1-(3,4-difluorobenzyl)-1H-pyrazol-4-yl]-amide], < 0.1 µM.
For `CN(C)Cc1cccc2[nH]c(-c3cc(NC(=O)c4cnn(Cc5ccccc5)c4)c[nH]c3=O)cc12` [Example 106, 1-Benzyl-1H-pyrazole-4-carboxylic acid [5-(4-dimethylaminomethyl-1H-indol-2-yl)-6-oxo-1,6-dihydro-pyridin-3-yl]-amide], the IC50 is < 0.1 µM.
On to `CN1CCN(Cc2cccc3[nH]c(-c4cc(NC(=O)c5cnn(Cc6ccccc6)c5)c[nH]c4=O)cc23)CC1` [Example 107, 1-Benzyl-1H-pyrazole-4-carboxylic acid {5-[4-(4-methyl-piperazin-1-ylmethyl)-1H-indol-2-yl]-6-oxo-1,6-dihydro-pyridin-3-yl}-amide], for which the IC50 was < 0.1 µM.
For the molecule `O=C(Nc1c[nH]c(=O)c(-c2cc3c(CN4CCCCC4)cccc3[nH]2)c1)c1cnn(Cc2ccccc2)c1` [Example 108, 1-Benzyl-1H-pyrazole-4-carboxylic acid [6-oxo-5-(4-piperidin-1-ylmethyl-1H-indol-2-yl)-1,6-dihydro-pyridin-3-yl]-amide], the half-inhibitory concentration (IC50) is < 0.1 µM.
As for `C[C@@H]1CN(Cc2cccc3[nH]c(-c4cc(NC(=O)c5cnn(Cc6ccccc6)c5)c[nH]c4=O)cc23)C[C@H](C)O1` [Example 109, 1-Benzyl-1H-pyrazole-4-carboxylic acid {5-[4-(cis-2,6-dimethyl-morpholin-4-ylmethyl)-1H-indol-2-yl]-6-oxo-1,6-dihydro-pyridin-3-yl}-amide], the figure is < 0.1 µM.
Regarding `O=C(Nc1cnn(Cc2ccc(F)nc2)c1)c1c[nH]c(=O)c(-c2cc3ccccc3[nH]2)c1` [Example 110, 5-(1H-Indol-2-yl)-6-oxo-1,6-dihydro-pyridine-3-carboxylic acid [1-(6-fluoro-pyridin-3-ylmethyl)-1H-pyrazol-4-yl]-amide], the IC50 is 0.1 to 0.5 µM.
With `O=C(Nc1c[nH]c(=O)c(-c2cc3ccccc3[nH]2)c1)c1cnn(Cc2ccc(F)nc2)c1` [Example 111, 1-(6-Fluoro-pyridin-3-ylmethyl)-1H-pyrazole-4-carboxylic acid [5-(1H-indol-2-yl)-6-oxo-1,6-dihydro-pyridin-3-yl]-amide] the figure was < 0.1 µM.
With `Cc1ccc(Cn2cc(C(=O)Nc3c[nH]c(=O)c(-c4cc5cc(N6CCN(C)CC6)ccc5[nH]4)c3)cn2)cc1` [Example 112, 1-(4-Methyl-benzyl)-1H-pyrazole-4-carboxylic acid {5-[5-(4-methyl-piperazin-1-yl)-1H-indol-2-yl]-6-oxo-1,6-dihydro-pyridin-3-yl}-amide], the half-inhibitory concentration (IC50) is < 0.1 µM.
Consider `CN1CCN(c2ccc3[nH]c(-c4cc(NC(=O)c5cnn(Cc6ccccc6)c5)c[nH]c4=O)cc3c2)CC1` [Example 113, 1-Benzyl-1H-pyrazole-4-carboxylic acid {5-[5-(4-methyl-piperazin-1-yl)-1H-indol-2-yl]-6-oxo-1,6-dihydro-pyridin-3-yl}-amide], for which the IC50 is < 0.1 µM.
Take `CN1CCN(c2ccc3[nH]c(-c4cc(NC(=O)c5cnn(Cc6ccc(F)cc6)c5)c[nH]c4=O)cc3c2)CC1` [Example 114, 1-(4-Fluoro-benzyl)-1H-pyrazole-4-carboxylic acid {5-[5-(4-methyl-piperazin-1-yl)-1H-indol-2-yl]-6-oxo-1,6-dihydro-pyridin-3-yl}-amide]: the half-maximal inhibitory concentration (IC50) is < 0.1 µM.
With `Cc1ccc(Cn2cc(C(=O)Nc3c[nH]c(=O)c(-c4cc5cc(OCCN6CCCCC6)ccc5[nH]4)c3)cn2)cc1` [Example 115, 1-(4-Methyl-benzyl)-1H-pyrazole-4-carboxylic acid {6-oxo-5-[5-(2-piperidin-1-yl-ethoxy)-1H-indol-2-yl]-1,6-dihydro-pyridin-3-yl}-amide] the figure was < 0.1 µM.
With `Cc1ccc(Cn2cc(C(=O)Nc3c[nH]c(=O)c(-c4cc5cc(OCCN6CCCC(F)C6)ccc5[nH]4)c3)cn2)cc1` (centres unmarked) [Example 116, 1-(4-Methyl-benzyl)-1H-pyrazole-4-carboxylic acid (5-{5-[2-(3-fluoro-piperidin-1-yl)-ethoxy]-1H-indol-2-yl}-6-oxo-1,6-dihydro-pyridin-3-yl)-amide] the figure was < 0.1 µM.
With `Cc1ccc(Cn2cc(C(=O)Nc3c[nH]c(=O)c(-c4cc5cc(OCCCN6CCOCC6)ccc5[nH]4)c3)cn2)cc1` [Example 117, 1-(4-Methyl-benzyl)-1H-pyrazole-4-carboxylic acid {5-[5-(3-morpholin-4-yl-propoxy)-1H-indol-2-yl]-6-oxo-1,6-dihydro-pyridin-3-yl}-amide] the figure was < 0.1 µM; with `Cc1ccc(Cn2cc(C(=O)Nc3c[nH]c(=O)c(-c4cc5cc(OCCN6CCOCC6)ccc5[nH]4)c3)cn2)cc1` [Example 118, 1-(4-Methyl-benzyl)-1H-pyrazole-4-carboxylic acid {5-[5-(2-morpholin-4-yl-ethoxy)-1H-indol-2-yl]-6-oxo-1,6-dihydro-pyridin-3-yl}-amide], < 0.1 µM.
Regarding `Cc1ccc(Cn2cc(C(=O)Nc3c[nH]c(=O)c(-c4cc5cc(OCCCN6CCCCC6)ccc5[nH]4)c3)cn2)cc1` [Example 119, 1-(4-Methyl-benzyl)-1H-pyrazole-4-carboxylic acid {6-oxo-5-[5-(3-piperidin-1-yl-propoxy)-1H-indol-2-yl]-1,6-dihydro-pyridin-3-yl}-amide], the 50% inhibitory concentration (IC50) was < 0.1 µM.
For `O=C(Nc1c[nH]c(=O)c(-c2cc3cc(OCCN4CCCCC4)ccc3[nH]2)c1)c1cnn(Cc2ccc(C(F)(F)F)cc2)c1` [Example 121, 1-(4-Trifluoromethyl-benzyl)-1H-pyrazole-4-carboxylic acid {6-oxo-5-[5-(2-piperidin-1-yl-ethoxy)-1H-indol-2-yl]-1,6-dihydro-pyridin-3-yl}-amide], the 50% inhibitory concentration (IC50) is < 0.1 µM.
In the case of `Cc1ccc(Cn2cc(C(=O)Nc3c[nH]c(=O)c(-c4cc5cc(OCCCN(C)C)ccc5[nH]4)c3)cn2)cc1` [Example 122, 1-(4-Methyl-benzyl)-1H-pyrazole-4-carboxylic acid {5-[5-(3-dimethylamino-propoxy)-1H-indol-2-yl]-6-oxo-1,6-dihydro-pyridin-3-yl}-amide], the IC50 was < 0.1 µM.
With `CCN(CC)CCCOc1ccc2[nH]c(-c3cc(NC(=O)c4cnn(Cc5ccc(C)cc5)c4)c[nH]c3=O)cc2c1` [Example 123, 1-(4-Methyl-benzyl)-1H-pyrazole-4-carboxylic acid {5-[5-(3-diethylamino-propoxy)-1H-indol-2-yl]-6-oxo-1,6-dihydro-pyridin-3-yl}-amide], the IC50 is < 0.1 µM.
